The results in this text go back to PMC3804614, “Transient Receptor Potential Channels Encode Volatile Chemicals Sensed by Rat Trigeminal Ganglion Neurons” (PLoS ONE, 2013).

What all share (format): cell-based
One test has as its target T1, rTRPV1 (Rattus norvegicus, UniProt O35433).
T1 construct: gene Trpv1
As to the kind of experiment: whole-cell voltage clamp, CHO cells expressing rTRPV1; block of odorant-evoked currents.

The next test addresses T2, rTRPA1 (Rattus norvegicus, UniProt Q6RI86).
T2 construct: gene Trpa1
Description: whole-cell voltage clamp, CHO cells expressing rTRPA1; block of odorant-evoked currents.

For the next test, the target named is rTASK1 (K2P3, KCNK3) (Rattus norvegicus, UniProt O54912). As to the kind of experiment: two-electrode voltage clamp, Xenopus oocytes expressing rTASK1, dose-response.

Like-named read-outs stand apart in the source and are kept apart here.

rTASK1 (K2P3, KCNK3), sequence (O54912 whole entry): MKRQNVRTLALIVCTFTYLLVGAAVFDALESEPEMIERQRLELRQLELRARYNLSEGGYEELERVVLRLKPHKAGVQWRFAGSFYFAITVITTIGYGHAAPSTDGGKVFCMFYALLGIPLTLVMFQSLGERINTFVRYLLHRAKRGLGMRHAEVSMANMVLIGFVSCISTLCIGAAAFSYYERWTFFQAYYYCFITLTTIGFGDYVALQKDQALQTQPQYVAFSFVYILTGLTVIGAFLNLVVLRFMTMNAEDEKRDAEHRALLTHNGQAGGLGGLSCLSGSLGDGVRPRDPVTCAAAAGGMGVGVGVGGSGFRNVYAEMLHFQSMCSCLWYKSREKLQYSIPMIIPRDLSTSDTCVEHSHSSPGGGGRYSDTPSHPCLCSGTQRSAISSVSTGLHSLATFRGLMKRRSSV
T2 sequence (Q6RI86 whole entry): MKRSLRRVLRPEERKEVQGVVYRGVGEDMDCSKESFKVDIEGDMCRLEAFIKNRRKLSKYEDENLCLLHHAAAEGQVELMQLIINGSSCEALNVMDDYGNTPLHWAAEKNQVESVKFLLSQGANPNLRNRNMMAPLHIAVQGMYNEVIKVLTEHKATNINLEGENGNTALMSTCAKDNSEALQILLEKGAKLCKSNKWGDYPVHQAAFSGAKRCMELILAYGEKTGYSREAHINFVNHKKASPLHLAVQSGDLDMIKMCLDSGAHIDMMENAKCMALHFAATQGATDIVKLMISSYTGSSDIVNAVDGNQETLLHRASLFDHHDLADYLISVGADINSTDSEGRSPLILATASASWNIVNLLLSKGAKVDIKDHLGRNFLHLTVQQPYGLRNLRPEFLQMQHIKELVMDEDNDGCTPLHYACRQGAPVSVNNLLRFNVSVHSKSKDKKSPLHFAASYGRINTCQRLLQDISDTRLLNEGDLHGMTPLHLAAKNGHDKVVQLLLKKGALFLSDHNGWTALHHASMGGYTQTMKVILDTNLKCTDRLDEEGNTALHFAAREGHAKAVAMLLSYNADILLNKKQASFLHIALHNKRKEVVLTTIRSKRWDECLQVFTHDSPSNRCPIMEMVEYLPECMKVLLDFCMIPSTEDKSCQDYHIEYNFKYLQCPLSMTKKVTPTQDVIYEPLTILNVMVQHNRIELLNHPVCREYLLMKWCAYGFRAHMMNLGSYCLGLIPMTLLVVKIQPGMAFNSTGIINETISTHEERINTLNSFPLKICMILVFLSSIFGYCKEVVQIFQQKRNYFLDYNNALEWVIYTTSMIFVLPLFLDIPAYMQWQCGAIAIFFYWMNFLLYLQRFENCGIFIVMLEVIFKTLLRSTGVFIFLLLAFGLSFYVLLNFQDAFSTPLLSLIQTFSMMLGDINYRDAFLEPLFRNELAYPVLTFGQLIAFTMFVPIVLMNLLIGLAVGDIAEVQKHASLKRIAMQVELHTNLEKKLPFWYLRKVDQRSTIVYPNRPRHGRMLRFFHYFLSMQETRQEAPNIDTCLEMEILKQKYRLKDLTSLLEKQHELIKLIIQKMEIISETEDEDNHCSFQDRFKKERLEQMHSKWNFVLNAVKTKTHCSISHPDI
T1 sequence (O35433 whole entry): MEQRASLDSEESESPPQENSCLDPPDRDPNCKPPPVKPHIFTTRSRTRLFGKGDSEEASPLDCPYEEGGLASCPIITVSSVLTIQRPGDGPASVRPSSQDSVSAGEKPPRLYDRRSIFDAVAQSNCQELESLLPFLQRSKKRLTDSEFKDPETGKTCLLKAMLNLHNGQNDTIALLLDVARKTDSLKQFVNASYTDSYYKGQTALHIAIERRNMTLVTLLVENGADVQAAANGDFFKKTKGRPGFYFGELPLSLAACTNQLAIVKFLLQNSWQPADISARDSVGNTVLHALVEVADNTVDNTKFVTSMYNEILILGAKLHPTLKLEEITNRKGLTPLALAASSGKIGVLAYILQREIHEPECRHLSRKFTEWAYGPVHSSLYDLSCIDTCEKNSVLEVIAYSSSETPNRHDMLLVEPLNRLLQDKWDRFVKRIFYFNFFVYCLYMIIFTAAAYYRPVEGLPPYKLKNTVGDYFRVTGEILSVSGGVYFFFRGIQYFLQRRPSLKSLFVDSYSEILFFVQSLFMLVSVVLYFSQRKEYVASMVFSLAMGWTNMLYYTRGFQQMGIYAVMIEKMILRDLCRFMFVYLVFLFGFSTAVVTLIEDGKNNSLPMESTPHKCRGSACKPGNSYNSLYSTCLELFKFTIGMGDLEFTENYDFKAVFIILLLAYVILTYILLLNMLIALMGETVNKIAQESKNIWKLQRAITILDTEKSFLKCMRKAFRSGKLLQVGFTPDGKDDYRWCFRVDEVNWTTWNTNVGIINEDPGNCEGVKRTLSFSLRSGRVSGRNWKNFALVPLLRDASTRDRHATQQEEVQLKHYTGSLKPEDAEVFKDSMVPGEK

On to `Oc1cc2c(cc1O)CN(C(=S)NCCc1ccc(Cl)cc1)CCC2` [CPZ, capsazepine], for which, at rTRPV1, the “whole-cell voltage clamp, CHO cells expressing rTRPV1; block of odorant-evoked c” value is on record as “Co-administration of CPZ nearly completely inhibited all odorant-evoked outward currents”.

As to `CC(C)c1ccc(NC(=O)Cn2cnc3c2c(=O)n(C)c(=O)n3C)cc1` [HC, HC-030031], the “whole-cell voltage clamp, CHO cells expressing rTRPA1; block of odorant-evoked c” value on rTRPA1 is “Co-administration of HC nearly completely inhibited vanillin- and HTPA-evoked outward and inward currents”.

In the case of `CC(C)=CCC/C(C)=C/CO` [geraniol], the IC50 at rTASK1 (K2P3, KCNK3) (read-out: IC50) was determined as 580 ± 90 µM.

The molecule `CC(=O)CCc1ccc2c(c1)OCO2` [heliotropyl acetone] gave an IC50 against rTASK1 (K2P3, KCNK3) of 890 ± 120 µM.
